# “Also recorded” adds a separate entry of the source.
# How the values were obtained:
# MAPK (pERK, pJNK, pp38) = assay: Western Blot of MAPK phosphorylation in J774A.1 cells; assay type: cell-based, mouse
# NLRP3 inflammasome = NLRP3 inflammasome activation in LPS/ATP-treated J774A.1 cells (ELISA, Western Blot); assay type: cell-based, mouse
# Procedure: Each group was treated with 0, 0.1, 0.5 and 1 μM Tris DBA culture medium for 30 minutes, reacting with 1 μg/ml lipopolysaccharide (LPS) of NLRP3 inflammasome typical activator for 5.5 hours. Finally, it reacted with 5 mM ATP reagent for 30 minutes, the IL-1β and caspase-1 cytokines were tested by ELISA.
# The protein expression was analyzed by Western Blot, the cells and Tris DBA were cultured for 1 hour, and cultured with two groups with LPS or without LPS respectively for 5.5 hours to test the expression level of cytokines (NLRP3, caspase-1, pro-caspase-1, pro-IL-1β, pro-IL-1β) in cells. This step refers to the data from prior literature (Chang Y P, et. al. 2015. Resveratrol inhibits NLRP3 inflammasome activation by preserving mitochondrial integrity and augmenting autophagy.
# NF-κB = NF-κB activation in J774A.1 cells; assay type: cell-based, mouse; settings: FIG. 1I
# [1] = system: autophagy factors Atg5, LC3BI/II, p62; assay: Autophagy factor expression in J774A.1 cells (Western Blot); assay type: cell-based, mouse; settings: concentration-dependent
# [2] = system: CD4 T cells of OVA-TCR transgenic mouse; assay: Antigen-specific T cell proliferation ([3H]-thymidine) and IFN-γ/IL-4, OVA-TCR CD4 T cells cultured with BMDCs; assay type: cell-based; settings: FIG. 3L
# Procedure: The CD4 T cells of OVA-TCR transgenic mouse and T cell proliferation of antigenic specificity are used to analyze the manifestation of dendritic cell antigen. The OVA323-339 peptide reacts with LPS and LPS+Tris DBA groups for 16 hours respectively. The CD4 T cells abstracted from OVA-TCR transgenic mouse are cultured with BMDCs as per ratios of 1:0, 1:1, 1:2 and 1:4, the T cell proliferation is determined by radioactive [3H]-thymidine, and the processed cell supernatant is used for testing the IFN-γ and IL-4 expression levels in Th1 and Th2 cells according to the operational manual of commercial reagent kit.
# ASLN mouse (NZB/WF1) [3] = assay: T cell subsets in ASLN mouse model (NZB/WF1); assay type: in vivo; settings: Week 5, FIG. 3C
# Procedure: (§1) Improve mouse animal model of accelerated aggravated lupus nephritis8-week-old female mouse (NZB/WF1) model is used for experiment in this embodiment, the mice are randomly divided into two groups (treatment group Tris DBA, negative control group Katimin-1), 7 mice per group, the LPS (0.6 mg/kg) is injected into the abdominal cavity of mouse twice a week, the Tris DBA (30 mg/kg) or Katimin-1® is applied by intraperitoneal injection in one week after injection, the mice are sacrificed in Week 3 and Week 5 respectively.
# ASLN mouse (NZB/WF1) [4] = assay: Urine protein and renal function in ASLN mouse model; assay type: in vivo; settings: 30 mg/kg intraperitoneal
# Procedure: as §1
# The mouse urine is collected weekly, and the serum is collected when the mice are sacrificed in Week 3 and Week 5, the changes in three biochemical indexes, which are creatinine (Cr), BUN and albumin/creatinine ratio (ACR) in urine, are tested according to the operational manual of commercial reagent kit, so as to analyze the changes in renal function.
# ASLN mouse (NZB/WF1) [5] = assay: Renal pathology (PAM, IHC) and autoantibody in ASLN mouse model; assay type: in vivo
# Procedure: as §1
# When the mice are sacrificed in Week 3 and Week 5, the renal tissue is taken for analysis, the renal cortex tissue is stained by PAM to analyze the content of immunoglobulin G (IgG) and serum complement C3, and the content of F4/80+ macrophages and CD30+ T cells is analyzed by IHC, so as to detect specific antigen molecules in tissue slice and to perform positioning, qualitative and quantitative analyses.
# ASLN mouse kidney = assay: Protein expression in renal tissue of ASLN mouse; assay type: in vivo
# Procedure: as §1
# The renal tissue is thoroughly mixed with RIPA lysis, the expression levels of proteins Atg5, LC3B, p62, NLRP3, caspase-1, IL-1β, p47phox, NQO1, pERK, pJNK and pp38 are tested by gel electrophoresis (SDS-page).
# ASLN mouse (NZB/WF1) [6] = assay: ROS (superoxide anion) in urine, serum and renal tissue of ASLN mouse; assay type: in vivo; settings: Week 3 and Week 5, versus Katimin-1 group
# Procedure: as §1
# The ASLN mouse urine, serum and renal tissue obtained in Embodiment 2.4 are used to test antioxidant activity. The ROS content is tested according to operational manual of commercial reagent kit, the fluorescence probe dihydroethidium (Dihydroethidium, DHE) reacts with mouse urine and serum. The experimental results are represented as RLU/15 min/ml; the renal tissue is represented as RLU/15 min/mg dry weight.
# BMDM cells = assay: Mitochondrion ROS in mouse BMDM; assay type: cell-based; settings: LPS 1 μg/mL 5.5 hours, ATP 30 minutes, FIGS. 6D-6E
# Procedure: The generation of mitochondrion ROS in the mouse BMDM is tested by using mitosox principle. There are two experimental groups (treatment group Tris DBA, negative control group NAC), reacting with 1 μg/mL LPS and cells for 5.5 hours, treated with ATP for 30 minutes, treated with commercial reagent H2DCFDA for one hour, so as to evaluate the cellular infiltration fluorescence intensity.
# ASLN mouse (NZB/WF1) [7] = assay: Renal pathology (PAM, IHC) and autoantibody in ASLN mouse model; assay type: in vivo; settings: ASLN mouse kidney
structure (smiles),measurement,setting,value
O=C(/C=C/c1ccccc1)/C=C/c1ccccc1.O=C(/C=C/c1ccccc1)/C=C/c1ccccc1.O=C(/C=C/c1ccccc1)/C=C/c1ccccc1.[Pd].[Pd] [Tris DBA],pERK expression level,"MAPK (pERK, pJNK, pp38); FIG. 1A",can inhibit
same,pJNK expression level,"MAPK (pERK, pJNK, pp38); FIG. 1B",can inhibit
same,pp38 expression level,"MAPK (pERK, pJNK, pp38); FIG. 1C",can inhibit
same,NLRP3 protein expression level,NLRP3 inflammasome; FIG. 1F,can inhibit
same,pro-IL-1β protein expression level,NLRP3 inflammasome; FIG. 1G,can inhibit
same,expression level of IL-1β,NLRP3 inflammasome; FIGS. 2J-2K,can inhibit
same,"cytokines induced by LPS (IL-1β, caspase-1, pro-IL-1β) of cell supernatant","NLRP3 inflammasome; Western Blot, FIG. 2B",can inhibit
same,activation of NLRP3 inflammasome (IL-1β induced by LPS),"NLRP3 inflammasome; after treatment with ATP, FIG. 2A",inhibit
same,NF-κB activation,NF-κB,will not affect; also recorded: fails to inhibit
same,LC3BI/II expression level,"[1]; FIG. 2C, 2E",promotes
same,p62 expression level,"[1]; FIG. 2C, 2F",promotes
same,Atg5 expression level,[1]; FIG. 2C-2D,promotes
same,proliferation of T cells,[2],inhibit
same,regulated T cells FoxP3+CD25+CD4+,ASLN mouse (NZB/WF1) [3],will not inhibit; also recorded: significantly increase
same,BUN,"ASLN mouse (NZB/WF1) [4]; favorable inhibitory effect in Week 3, FIG. 4A",inhibits
same,creatinine,"ASLN mouse (NZB/WF1) [4]; favorable inhibitory effect in Week 3, FIG. 4B",inhibits
same,urine ACR,"ASLN mouse (NZB/WF1) [4]; favorable inhibitory effect in Week 3, FIG. 4C",inhibits
same,content of immunoglobulin G (IgG),ASLN mouse (NZB/WF1) [5]; ASLN mouse kidney,can obviously inhibit
same,content of serum complement C3,ASLN mouse (NZB/WF1) [5]; ASLN mouse kidney,can obviously inhibit
same,content of F4/80+ macrophages,"ASLN mouse (NZB/WF1) [5]; ASLN mouse kidney, IHC",can obviously inhibit
same,glomerular cell proliferation,"ASLN mouse (NZB/WF1) [5]; ASLN mouse renal tissue, PAM stain, FIG. 4E",obviously inhibits
same,glomerular crescent structure proliferation,"ASLN mouse (NZB/WF1) [5]; ASLN mouse renal tissue, PAM stain, FIG. 4F",obviously inhibits
same,neutrophilic infiltration,"ASLN mouse (NZB/WF1) [5]; ASLN mouse renal tissue, PAM stain, FIG. 4G",obviously inhibits
same,fibrinoid necrosis,"ASLN mouse (NZB/WF1) [5]; ASLN mouse renal tissue, PAM stain, FIG. 4H",obviously inhibits
same,renal interstitial inflammation,"ASLN mouse (NZB/WF1) [5]; ASLN mouse renal tissue, PAM stain, FIG. 4I",obviously inhibits
same,glomerulonephritis,"ASLN mouse (NZB/WF1) [5]; ASLN mouse renal tissue, PAM stain, FIG. 4J",obviously inhibits
same,anti-dsDNA autoantibody,"ASLN mouse (NZB/WF1) [5]; ASLN mouse, FIG. 4O",inhibits
same,NLRP3,ASLN mouse kidney; FIG. 5B,inhibitory effect
same,IL-1β,ASLN mouse kidney; FIG. 5C,inhibitory effect
same,Atg5,ASLN mouse kidney; FIG. 5G,inhibitory effect
same,LC3B I/II,ASLN mouse kidney; FIG. 5H,inhibitory effect
same,content of p47NADPH,ASLN mouse kidney; FIG. 5J,can inhibit
same,manifestation of NQO1,ASLN mouse kidney; FIG. 5K,can promote
same,activity of GPx,ASLN mouse kidney; FIG. 5L,can enhance
same,"expression level of superoxide anion, kidney",ASLN mouse (NZB/WF1) [6]; FIG. 6A,lower
same,"expression level of superoxide anion, serum",ASLN mouse (NZB/WF1) [6]; FIG. 6B,lower
same,"expression level of superoxide anion, urine",ASLN mouse (NZB/WF1) [6]; FIG. 6C,lower
same,generation of mitochondria ROS,BMDM cells,can inhibit
same,content of CD3+T cells,ASLN mouse (NZB/WF1) [7],can obviously inhibit
